Target: Enoyl-[acyl-carrier-protein] reductase [NADH] (Mycobacterium tuberculosis, UniProt P9WGR1, S94A)

With `CC(C)[C@H]1OC(=O)[C@H](C)[C@H](O)[C@H](Cc2cccnc2)NC(=O)[C@@H](NC(=O)c2ncccc2O)[C@@H](C)OC1=O` the Ki was 71 µM.

Reference: ChEMBL document CHEMBL2321872, “Synthesis and antimycobacterial activity of 2,1'-dihydropyridomycins” (ACS Med Chem Lett, 2013)
